Results as given in patent US10065990B2, “Cyclic peptide compound, and preparation method, pharmaceutical composition and use thereof” (HANGZHOU GUANYU BIO-MEDICAL CO., LTD, priority 2013, dated 2018).
Where two headings read alike, the source gives them in different places.

What was measured:
[1] = biological target: T1, HDAC7 (Homo sapiens, UniProt Q8WUI4); test: HDAC biochemical activity measurement (fluorescent substrate deacetylation);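 further: fluorogenic deacetylation assay using acetyl-lysine substrate at 20 µM, enzyme and compound incubated 30 min at 37 °C, then developer added, fluorescence read at 360/460 nm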; conditions: HDAC7; 37° C. 30 minutes
T1 sequence (Q8WUI4 1-952): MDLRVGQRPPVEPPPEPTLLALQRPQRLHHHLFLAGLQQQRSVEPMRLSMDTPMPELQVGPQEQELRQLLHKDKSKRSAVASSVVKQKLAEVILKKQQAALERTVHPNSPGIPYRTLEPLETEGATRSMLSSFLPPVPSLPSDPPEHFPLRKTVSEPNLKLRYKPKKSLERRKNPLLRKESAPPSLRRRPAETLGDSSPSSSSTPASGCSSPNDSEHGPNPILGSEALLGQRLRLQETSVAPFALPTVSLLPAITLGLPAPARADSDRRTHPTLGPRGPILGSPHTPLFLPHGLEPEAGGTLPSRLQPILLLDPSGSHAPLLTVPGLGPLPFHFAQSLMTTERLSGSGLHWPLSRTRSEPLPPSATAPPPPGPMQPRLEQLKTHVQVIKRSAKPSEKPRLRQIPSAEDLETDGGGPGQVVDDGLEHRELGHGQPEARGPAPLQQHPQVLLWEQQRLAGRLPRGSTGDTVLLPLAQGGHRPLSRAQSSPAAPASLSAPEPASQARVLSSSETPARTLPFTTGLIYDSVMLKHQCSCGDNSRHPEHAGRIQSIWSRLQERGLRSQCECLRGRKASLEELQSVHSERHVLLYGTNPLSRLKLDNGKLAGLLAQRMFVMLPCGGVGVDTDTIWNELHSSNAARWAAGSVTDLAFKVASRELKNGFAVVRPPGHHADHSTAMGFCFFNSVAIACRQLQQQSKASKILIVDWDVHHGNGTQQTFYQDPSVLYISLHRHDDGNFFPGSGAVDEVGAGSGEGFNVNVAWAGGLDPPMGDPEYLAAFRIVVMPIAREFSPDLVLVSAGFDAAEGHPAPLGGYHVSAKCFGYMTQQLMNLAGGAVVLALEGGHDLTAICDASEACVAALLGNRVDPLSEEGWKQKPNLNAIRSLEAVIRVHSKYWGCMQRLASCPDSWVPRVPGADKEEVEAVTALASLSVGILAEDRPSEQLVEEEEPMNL
Procedure: The chemical activity of the compound is determined according to the degree of deacetylation inhibition of the HDAC enzyme. This experiment measured the degree of deacetylation related to tumor proliferation and metastasis of HDAC1, HDAC2, HDAC3, HDAC8, HDAC11 five subtypes HDAC enzymes. After the substrate containing an acetylated lysine side chain and HDAC enzyme are labeled with a fluorescent label, the fluorescent substrate is de acetyl. The fluorescent labeled substrate is cleaved by the enzyme, and the fluorescent substance is released, which generates 460 nm emission light under the excitation of 360 nm light.
HDAC substrate was diluted with reaction buffer to 200M (reaction concentration of 20M), the HDAC enzyme was diluted to the appropriate concentration, then added different concentrations of the test compounds and acted at 37° C. 30 minutes, and then added the same volume of 2-times concentration substrate developing solution (developer), incubated at room temperature for 15 minutes. Finally, the last reading measured with a microplate plate reader, excitation light was 360 nm, the emitted light was 460 nm, data processing software was Prime 4, and the results are shown in Table 1.

[2] = tested on: KBM-5 (human chronic myelogenous leukemia); test: MTT cancer cell growth inhibition; type: cell-based; conditions: Homo sapiens, KBM5, 72 h, MTT, 72 hours incubation, KBM-5 cells; read-out: GI50 KBM-5
Outline: (§1)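 Seed 1500 cells/well, incubate overnight. Add compound, 10^−5 to 10^−10 M final, n=3; culture 72 h, 37° C., 5% CO2. Add MTT, 4 h. Discard supernatant, dissolve in DMSO. Read 570 nm; calculate viability and GI50.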

[3] = tested on: BGC-823 (human gastric cancer cells); test: MTT cancer cell growth inhibition; type: cell-based; conditions: Homo sapiens, BGC-823, 72 h, MTT, 72 hours incubation, read-out: GI50 BG
Outline: as §1

[4] = tested on: K562 (human leukemia cells); test: MTT cancer cell growth inhibition; type: cell-based; conditions: Homo sapiens, K562, 72 h, MTT, 72 hours incubation, K562 cells; read-out: GI50 K562
Outline: as §1

[5] = tested on: PANC-1 (Pac-1, human pancreatic cancer cells); test: MTT cancer cell growth inhibition; type: cell-based; conditions: Homo sapiens, PANC-1, 72 h, MTT, 72 hours incubation, read-out: GI50 PAN
Outline: as §1

[6] = tested on: HT1080 (human fibrosarcoma cells); test: MTT cancer cell growth inhibition; type: cell-based; conditions: MTT, 72 hours incubation, read-out: GI50 HT1
Outline: as §1

[7] = tested on: Hela (human cervical cancer cells); test: MTT cancer cell growth inhibition; type: cell-based; conditions: MTT, 72 hours incubation, read-out: GI50 Hela
Outline: as §1

[8] = tested on: H1975 (non-small cell lung adenocarcinoma); test: MTT cancer cell growth inhibition; type: cell-based; conditions: MTT, 72 hours incubation, H1975 cells, read-out: GI50 H1975
Outline: as §1

[9] = tested on: N-87 (human gastric cancer cells); test: MTT cancer cell growth inhibition; type: cell-based; conditions: Homo sapiens, 72 h, MTT, 72 hours incubation, N-87 cells; read-out: GI50 N-87
Outline: as §1

[10] = tested on: MDA-MB-231 (breast cancer cells); test: MTT cancer cell growth inhibition; type: cell-based; conditions: Homo sapiens, MDA-MB-231, 72 h, read-out: GI50 MDA-MB-231, MTT, 72 hours incubation, MDA-MB-231 cells
Outline: as §1

[11] = tested on: U937 (human leukemia cells); test: MTT cancer cell growth inhibition; type: cell-based; conditions: Homo sapiens, U-937, 72 h, MTT, 72 hours incubation, read-out: GI50 U93
Outline: as §1

[12] = tested on: MOLT-4 (human acute lymphoblastic leukemia cells); test: MTT cancer cell growth inhibition; type: cell-based; conditions: Homo sapiens, MOLT-4, 72 h, MTT, 72 hours incubation, read-out: GI50 Mol
Outline: as §1

[13] = tested on: MCF-7 (human breast cancer cells); test: MTT cancer cell growth inhibition; type: cell-based; conditions: Homo sapiens, MCF7, 72 h, 72 hours incubation, read-out: GI50 MCF
Outline: as §1

[14] = tested on: DU145 (human prostate cancer cells); test: MTT cancer cell growth inhibition; type: cell-based; conditions: Homo sapiens, DU-145, 72 h, MTT, 72 hours incubation, read-out: GI50 Du1
Outline: as §1

[15] = tested on: A549 (human lung cancer cells); test: MTT cancer cell growth inhibition; type: cell-based; conditions: MTT, 72 hours incubation, read-out: GI50 A54
Outline: as §1

[16] = tested on: KBM5-T315I (human chronic myelogenous leukemia); test: MTT cancer cell growth inhibition; type: cell-based; conditions: MTT, 72 hours incubation, KBM5-T315I cells, read-out: GI50 KBM5-T315I
Outline: as §1

[17] = tested on: Bel-7402 (human hepatoma cells); test: MTT cancer cell growth inhibition; type: cell-based; conditions: MTT, 72 hours incubation, Bel-7402 cells, read-out: GI50 Bel-7402
Outline: as §1

[18] = tested on: Huh-7 (human hepatoma cells); test: MTT cancer cell growth inhibition; type: cell-based; conditions: Homo sapiens, Huh-7, 72 h, MTT, 72 hours incubation, Huh-7 cells; read-out: GI50 Huh-7
Outline: as §1

[19] = tested on: SGC-7901 (human gastric cancer cells); test: MTT cancer cell growth inhibition; type: cell-based; conditions: Homo sapiens, SGC-7901, 72 h, MTT, 72 hours incubation, SGC-7901 cells; read-out: GI50 SGC-7901
Outline: as §1

[20] = tested on: HCC827 (human non-small cell lung cancer cells); test: MTT cancer cell growth inhibition; type: cell-based; conditions: MTT, 72 hours incubation, HCC827 cells, read-out: GI50 HCC827
Outline: as §1

[21] = tested on: lncap (prostate cancer cells); test: MTT cancer cell growth inhibition; type: cell-based; conditions: Homo sapiens, LNCaP, 72 h, MTT, 72 hours incubation, read-out: GI50 lnca
Outline: as §1

[22] = Homo sapiens, HT-1080, 72 h, HT1080 cells
[23] = Homo sapiens, HeLa, 72 h, Hela cells
[24] = Homo sapiens, A549, 72 h, A549 cells

IC50 HDAC7 [1] | GI50 [2] | GI50 [4] | GI50 ([8]; Homo sapiens, NCI-H1975, 72 h) | GI50 [9] | GI50 [10] | GI50 ([16]; Homo sapiens, 72 h) | GI50 ([17]; Homo sapiens, Bel-7402, 72 h) | GI50 [18] | GI50 [19] | GI50 ([20]; Homo sapiens, HCC827, 72 h) | GI50 ([3]; BGC-823 cells) | GI50 ([5]; PANC-1 cells) | GI50 [6, 22] | GI50 [7, 23] | GI50 ([11]; U937 cells) | GI50 ([12]; MOLT-4 cells) | GI50 ([13]; MCF-7 cells) | GI50 ([14]; DU145 cells) | GI50 ([21]; lncap cells) | SMILES | also measured
no activity | 0.028 µM | 0.036 µM | – | 0.026 µM | 0.071 µM | – | – | 0.071 µM | 0.044 µM | – | 0.03 µM | 0.03 µM | – | – | 0.05 µM | 0.05 µM | 0.06 µM | 0.03 µM | 0.08 µM | C/C=C1\NC(=O)c2ccc(SC)c(n2)CNC(=O)C[C@@H](/C=C/CCSC(C)=O)OC(=O)[C@H](C)NC1=O [Compound 185] | GI50 ([6]; HT1080 cells): 0.05 µM; GI50 ([7]; Hela cells): 0.05 µM; GI50 [8]: 0.012 µM; GI50 ([15]; A549 cells): 0.01 µM; GI50 [16]: 0.013 µM; GI50 [17]: 0.091 µM; GI50 [20]: 0.082 µM
no activity | 0.021 µM | 0.023 µM | 0.035 µM | 0.032 µM | 0.083 µM | 0.029 µM | 0.054 µM | 0.071 µM | 0.099 µM | 0.037 µM | 0.07 µM | 0.06 µM | 0.05 µM | 0.29 µM | 0.02 µM | 0.09 µM | 0.05 µM | 0.08 µM | 0.02 µM | C/C=C1\NC(=O)c2nc(ccc2SC)CNC(=O)C[C@@H](/C=C/CCSC(C)=O)OC(=O)[C@H](CCCCN)NC1=O [Compound 192] | GI50 [15, 24]: 0.09 µM
no activity | 0.031 µM | 0.083 µM | 0.039 µM | 0.023 µM | 0.035 µM | 0.041 µM | 0.035 µM | 0.035 µM | 0.071 µM | 0.023 µM | 0.07 µM | 0.09 µM | 0.03 µM | 0.06 µM | 0.08 µM | 0.03 µM | 0.03 µM | 0.05 µM | 0.1 µM | C/C=C1\NC(=O)c2ccc(SC)c(n2)CNC(=O)C[C@@H](/C=C/CCSC(=O)CCCCCCC)OC(=O)[C@H](C)NC1=O [Compound 182] | GI50 [15, 24]: 0.06 µM

More lines, now with the values behind:

SMILES | IC50 HDAC7 [1] | GI50 [2] | GI50 [4] | GI50 ([8]; Homo sapiens, NCI-H1975, 72 h) | GI50 [9] | GI50 [10] | GI50 ([16]; Homo sapiens, 72 h) | GI50 ([17]; Homo sapiens, Bel-7402, 72 h) | GI50 [18] | GI50 [19] | GI50 ([20]; Homo sapiens, HCC827, 72 h) | GI50 ([3]; BGC-823 cells) | GI50 ([5]; PANC-1 cells) | GI50 [6, 22] | GI50 [7, 23] | GI50 ([11]; U937 cells) | GI50 ([12]; MOLT-4 cells) | GI50 ([13]; MCF-7 cells) | GI50 ([14]; DU145 cells) | GI50 ([21]; lncap cells) | also measured
C/C=C1\NC(=O)c2nc(ccc2F)CNC(=O)C[C@@H](/C=C/CCSC(C)=O)OC(=O)[C@H](CCCCNC(=O)OCC2c3ccccc3-c3ccccc32)NC1=O [Example 75] | no activity | 0.061 µM | 0.028 µM | 0.028 µM | 0.022 µM | 0.035 µM | 0.026 µM | 0.042 µM | 0.035 µM | 0.041 µM | 0.042 µM | – | – | – | – | – | – | – | – | – | GI50 [3]: 0.02 µM; GI50 [5]: 0.04 µM; GI50 ([6]; Homo sapiens, HT-1080, 72 h): 0.04 µM; GI50 ([7]; Homo sapiens, HeLa, 72 h): 0.06 µM; GI50 [11]: 0.02 µM; GI50 [12]: 0.03 µM; GI50 [13]: 0.02 µM; GI50 [14]: 0.02 µM; GI50 ([15]; Homo sapiens, A549, 72 h): 0.04 µM; GI50 [21]: 0.03 µM
C=C1NC(=O)c2cccc(n2)CNC(=O)C[C@@H](/C=C/CCS)OC(=O)[C@H](C(C)C)NC1=O [Compound 131] | no activity | 0.063 µM | 0.045 µM | 0.016 µM | 0.095 µM | 0.046 µM | 0.045 µM | 0.043 µM | 0.023 µM | 0.031 µM | 0.059 µM | – | – | – | – | – | – | – | – | – | GI50 [3]: 0.04 µM; GI50 [5]: 0.04 µM; GI50 ([6]; Homo sapiens, HT-1080, 72 h): 0.08 µM; GI50 ([7]; Homo sapiens, HeLa, 72 h): 0.08 µM; GI50 [11]: 0.05 µM; GI50 [12]: 0.08 µM; GI50 [13]: 0.06 µM; GI50 [14]: 0.06 µM; GI50 ([15]; Homo sapiens, A549, 72 h): 0.05 µM; GI50 [21]: 0.08 µM
C/C=C1\NC(=O)c2cc(SC)cc(n2)CNC(=O)C[C@@H](/C=C/CCSC(=O)CCC)OC(=O)[C@H](C(C)C)NC1=O [Compound 160] | no activity | 0.028 µM | 0.042 µM | 0.071 µM | 0.049 µM | 0.017 µM | 0.026 µM | 0.036 µM | 0.042 µM | 0.081 µM | 0.016 µM | 0.09 µM | 0.04 µM | 0.04 µM | 0.05 µM | 0.05 µM | 0.05 µM | 0.04 µM | 0.04 µM | 0.05 µM | GI50 [15, 24]: 0.03 µM
